Tests used:
HeLa [1] = assay: Cytotoxicity against human HeLa cells assessed as decrease in cell survival after 72 hrs by MTT assay; assay type: functional, cell-based
Fem-X = assay: (§1) Cytotoxicity against human Fem-X cells assessed as decrease in cell survival after 72 hrs by MTT assay; assay type: functional, cell-based
[2] = as §1; assay type: functional, cell-based
LS174 = assay: (§2) Cytotoxicity against human LS174 cells assessed as decrease in cell survival after 72 hrs by MTT assay; assay type: functional, cell-based
[3] = as §2; assay type: functional, cell-based; settings: LS174, 72 h
PC-3 [4] = assay: Cytotoxicity against human PC3 cells assessed as decrease in cell survival after 72 hrs by MTT assay; assay type: functional, cell-based; settings: for IC50: PC-3, 72 h
MCF7 [5] = assay: Cytotoxicity against human MCF7 cells assessed as decrease in cell survival after 72 hrs by MTT assay; assay type: functional, cell-based; settings: for IC50: MCF7, 72 h
K562 [6] = assay: Cytotoxicity against human K562 cells assessed as decrease in cell survival after 72 hrs by MTT assay; assay type: functional, cell-based; settings: for IC50: K562, 72 h
PC-3 [7] = assay: Selectivity index, ratio of IC50 for PHA-stimulated human PBMC to IC50 for human PC3 cells
[8] = Selectivity index, ratio of IC50 for PHA-stimulated human PBMC to IC50 for human LS174 cells
[9] = Selectivity index, ratio of IC50 for PHA-stimulated human PBMC to IC50 for human Fem-X cells; assay type: functional
K562 [10] = assay: Selectivity index, ratio of IC50 for human PBMC to IC50 for human K562 cells
MCF7 [11] = assay: Selectivity index, ratio of IC50 for PHA-stimulated human PBMC to IC50 for human MCF7 cells
PBMC [12] = assay: Cytotoxicity against PHA-stimulated human PBMC assessed as decrease in cell survival after 72 hrs by MTT assay; assay type: cell-based
HeLa [13] = assay: Selectivity index, ratio of IC50 for PHA-stimulated human PBMC to IC50 for human HeLa cells
K562 [14] = assay: Selectivity index, ratio of IC50 for PHA-stimulated human PBMC to IC50 for human K562 cells
[15] = Selectivity index, ratio of IC50 for human PBMC to IC50 for human LS174 cells
MCF7 [16] = assay: Selectivity index, ratio of IC50 for human PBMC to IC50 for human MCF7 cells
HeLa [17] = assay: Selectivity index, ratio of IC50 for human PBMC to IC50 for human HeLa cells
[18] = Selectivity index, ratio of IC50 for human PBMC to IC50 for human Fem-X cells
PBMC [19] = assay: Cytotoxicity against human PBMC assessed as decrease in cell survival after 72 hrs by MTT assay; assay type: cell-based
PC-3 [20] = assay: Selectivity index, ratio of IC50 for human PBMC to IC50 for human PC3 cells

SMILES	Activity (HeLa [1])	IC50 (HeLa [1]; read-out: IC50)	IC50 (HeLa [1]; read-out: pIC50 (converted))	Activity (Fem-X)	IC50 ([2]; read-out: IC50)	IC50 ([2]; read-out: pIC50 (converted))	Activity (LS174)	IC50 ([3]; read-out: IC50)	IC50 ([3]; read-out: pIC50 (converted))	Activity (PC-3 [4])	IC50 (PC-3 [4]; read-out: IC50)	IC50 (PC-3 [4]; read-out: pIC50 (converted))	Activity (MCF7 [5])	IC50 (MCF7 [5]; read-out: IC50)	IC50 (MCF7 [5]; read-out: pIC50 (converted))	Activity (K562 [6])	IC50 (K562 [6]; read-out: IC50)	IC50 (K562 [6]; read-out: pIC50 (converted))	Ratio IC50 (PC-3 [7])	Ratio IC50 [8]	also measured
O=C(/C=C/c1ccccc1Cl)c1ccccc1O	Dose-dependent effect	11.2 µM	11.2 µM	Dose-dependent effect	10.4 µM	10.4 µM	Dose-dependent effect	32.2 µM	32.2 µM	Dose-dependent effect	20.1 µM	20.1 µM	Dose-dependent effect	29.8 µM	29.8 µM	Dose-dependent effect	9.8 µM	9.8 µM			
Cc1ccc(/C=C/C(=O)c2ccccc2O)cc1	Dose-dependent effect	20.6 µM	20.6 µM	Dose-dependent effect	21.2 µM	21.2 µM	Dose-dependent effect	41.2 µM	41.2 µM	Dose-dependent effect	27.6 µM	27.6 µM	Dose-dependent effect	33.9 µM	33.9 µM	Dose-dependent effect	18.9 µM	18.9 µM			
CCCNCC(O)COc1ccccc1C(=O)CCc1ccccc1F.Cl (racemic)	Dose-dependent effect	16.4 µM	16.4 µM	Dose-dependent effect	38.2 µM	38.2 µM	Dose-dependent effect	72.2 µM	72.2 µM	Dose-dependent effect	46.4 µM	46.4 µM	Dose-dependent effect	18.5 µM	18.5 µM	Dose-dependent effect	37.6 µM	37.6 µM	1.04	0.67	Ratio IC50 [9]: 1.26; Ratio IC50 (K562 [10]): 1.26; Ratio IC50 (MCF7 [11]): 2.6; IC50 (PBMC [12]): 48.1 µM; Ratio IC50 (HeLa [13]): 2.93; Ratio IC50 (K562 [14]): 1.28; Ratio IC50 [15]: 0.66; Ratio IC50 (MCF7 [16]): 2.57; Ratio IC50 (HeLa [17]): 2.89; Ratio IC50 [18]: 1.24; IC50 (PBMC [19]): 47.5 µM; Ratio IC50 (PC-3 [20]): 1.02
Cc1ccccc1/C=C/C(=O)c1ccccc1O	Dose-dependent effect	14.7 µM	14.7 µM	Dose-dependent effect	22.4 µM	22.4 µM	Dose-dependent effect	48.8 µM	48.8 µM	Dose-dependent effect	19.2 µM	19.2 µM	Dose-dependent effect	37.7 µM	37.7 µM	Dose-dependent effect	18.5 µM	18.5 µM			
O=C(/C=C/c1ccccc1C(F)(F)F)c1ccccc1O	Dose-dependent effect	18.1 µM	18.1 µM	Dose-dependent effect	10.2 µM	10.2 µM	Dose-dependent effect	26.4 µM	26.4 µM	Dose-dependent effect	33.5 µM	33.5 µM	Dose-dependent effect	16.9 µM	16.9 µM	Dose-dependent effect	9.2 µM	9.2 µM	1.04	1.32	Ratio IC50 [9]: 3.42; Ratio IC50 (K562 [10]): 4.55; Ratio IC50 (MCF7 [11]): 2.07; IC50 (PBMC [12]): 25.2 µM; Ratio IC50 (HeLa [13]): 1.92; Ratio IC50 (K562 [14]): 3.79; Ratio IC50 [15]: 1.59; Ratio IC50 (MCF7 [16]): 2.48; Ratio IC50 (HeLa [17]): 2.31; Ratio IC50 [18]: 4.1; IC50 (PBMC [19]): 41.9 µM; Ratio IC50 (PC-3 [20]): 1.25
CCCNCC(O)COc1ccccc1C(=O)CCc1ccccc1C.Cl (racemic)	Dose-dependent effect	8.9 µM	8.9 µM	Dose-dependent effect	6.8 µM	6.8 µM	Dose-dependent effect	20.3 µM	20.3 µM	Dose-dependent effect	18 µM	18 µM	Dose-dependent effect	23.4 µM	23.4 µM	Dose-dependent effect	8.1 µM	8.1 µM	2.77	2.45	Ratio IC50 [9]: 7.32; Ratio IC50 (K562 [10]): 6.47; Ratio IC50 (MCF7 [11]): 2.13; IC50 (PBMC [12]): 49.8 µM; Ratio IC50 (HeLa [13]): 5.6; Ratio IC50 (K562 [14]): 6.15; Ratio IC50 [15]: 2.58; Ratio IC50 (MCF7 [16]): 2.24; Ratio IC50 (HeLa [17]): 5.89; Ratio IC50 [18]: 7.71; IC50 (PBMC [19]): 52.4 µM; Ratio IC50 (PC-3 [20]): 2.91
O=C(/C=C/c1ccc(F)cc1)c1ccccc1O	Dose-dependent effect	22.6 µM	22.6 µM	Dose-dependent effect	21.8 µM	21.8 µM	Dose-dependent effect	35.3 µM	35.3 µM	Dose-dependent effect	30.4 µM	30.4 µM	Dose-dependent effect	26 µM	26 µM	Dose-dependent effect	17.9 µM	17.9 µM			
CCCNCC(O)COc1ccccc1C(=O)CCc1ccc(F)cc1.Cl (racemic)	Dose-dependent effect	16.1 µM	16.1 µM	Dose-dependent effect	9.6 µM	9.6 µM	Dose-dependent effect	23.2 µM	23.2 µM	Dose-dependent effect	31.9 µM	31.9 µM	Dose-dependent effect	33 µM	33 µM	Dose-dependent effect	27.7 µM	27.7 µM	1.53	2.1	Ratio IC50 [9]: 5.08; Ratio IC50 (K562 [10]): 2.18; Ratio IC50 (MCF7 [11]): 1.48; IC50 (PBMC [12]): 48.8 µM; Ratio IC50 (HeLa [13]): 3.03; Ratio IC50 (K562 [14]): 1.76; Ratio IC50 [15]: 2.6; Ratio IC50 (MCF7 [16]): 1.83; Ratio IC50 (HeLa [17]): 3.75; Ratio IC50 [18]: 6.28; IC50 (PBMC [19]): 60.3 µM; Ratio IC50 (PC-3 [20]): 3.35
O=C(/C=C/c1ccccc1F)c1ccccc1O	Dose-dependent effect	8.9 µM	8.9 µM	Dose-dependent effect	8.7 µM	8.7 µM	Dose-dependent effect	17.4 µM	17.4 µM	Dose-dependent effect	21.6 µM	21.6 µM	Dose-dependent effect	14.4 µM	14.4 µM	Dose-dependent effect	4.8 µM	4.8 µM	0.76	0.94	Ratio IC50 [9]: 1.88; Ratio IC50 (K562 [10]): 3.67; Ratio IC50 (MCF7 [11]): 1.14; IC50 (PBMC [12]): 16.4 µM; Ratio IC50 (HeLa [13]): 1.84; Ratio IC50 (K562 [14]): 3.41; Ratio IC50 [15]: 1.01; Ratio IC50 (MCF7 [16]): 1.22; Ratio IC50 (HeLa [17]): 1.98; Ratio IC50 [18]: 2.02; IC50 (PBMC [19]): 17.6 µM; Ratio IC50 (PC-3 [20]): 0.81
CCCNCC(O)COc1ccccc1C(=O)CCc1ccccc1C(F)(F)F.Cl (racemic)	Dose-dependent effect	6.78 µM	6.78 µM	Dose-dependent effect	16.1 µM	16.1 µM	Dose-dependent effect	18.6 µM	18.6 µM	Dose-dependent effect	23.3 µM	23.3 µM	Dose-dependent effect	9.7 µM	9.7 µM	Dose-dependent effect	8.8 µM	8.8 µM	1.52	1.91	Ratio IC50 [9]: 2.2; Ratio IC50 (K562 [10]): 5.05; Ratio IC50 (MCF7 [11]): 3.66; IC50 (PBMC [12]): 35.5 µM; Ratio IC50 (HeLa [13]): 5.24; Ratio IC50 (K562 [14]): 4.03; Ratio IC50 [15]: 2.39; Ratio IC50 (MCF7 [16]): 4.58; Ratio IC50 (HeLa [17]): 6.55; Ratio IC50 [18]: 2.76; IC50 (PBMC [19]): 44.4 µM; Ratio IC50 (PC-3 [20]): 1.91
